Test results as given in the supplement of paper PMC7108870.

Key:
HEK293sieSTAT3(Y640F) [1] = assay: drug sensitivity score (DSS), cytotoxicity CellTox Green (DSS (dimensionless)); higher = more cytotoxic; extreme values may be limits of the assay; settings: 72 h; STAT3 variant: Y640F (constitutively active)
In short: (§1)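 A drug sensitivity score, based on the area of the dose-response curve, was calculated in Breeze after normalising values to negative and positive control wells. It came from HEK293 cells carrying a STAT3-dependent luciferase reporter and overexpressing wild-type or mutant STAT3, plated at 20 μl of 100,000 cells/ml onto compounds acoustically pre-plated at 5 concentrations in 10-fold dilutions in 384-well plates. Following 72 hours at 37°C and 5% CO2, CellTox Green fluorescence (485/520 nm) and then CellTiter-Glo luminescence were read on a PHERAstar FS.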

HEK293sieSTAT3(wt) [2] = assay: as above; settings: 72 h; STAT3 variant: wild type
In short: as §1

HEK293sieSTAT3(Y640F) [3] = assay: drug sensitivity score (DSS), viability CellTiter-Glo (DSS (dimensionless)); higher = more growth inhibition; extreme values may be limits of the assay; settings: 72 h; STAT3 variant: Y640F (constitutively active)
In short: as §1

HEK293sieSTAT3(wt) [4] = assay: as above; settings: 72 h; STAT3 variant: wild type
In short: as §1

Row | Compound | drug sensitivity score (HEK293sieSTAT3(Y640F) [1]) | drug sensitivity score (HEK293sieSTAT3(wt) [2]) | drug sensitivity score (HEK293sieSTAT3(Y640F) [3]) | drug sensitivity score (HEK293sieSTAT3(wt) [4])
1 | COc1cc([C@@H]2c3cc4c(cc3[C@@H](O[C@@H]3O[C@@H]5CO[C@@H](c6cccs6)O[C@H]5[C@H](O)[C@H]3O)[C@H]3COC(=O)[C@H]23)OCO4)cc(OC)c1O [Teniposide] (top concentration tested 10000 nM) | 2.03 | 8.89 | 29 | 29.6
2 | O=C1CCC(N2C(=O)c3ccccc3C2=O)C(=O)N1 (stereo unspecified) [Thalidomide] (top concentration tested 10000 nM) | 0 | 0 | 4.79 | 2.38
3 | S=P(N1CC1)(N1CC1)N1CC1 [Thio-TEPA] (top concentration tested 50000 nM) | 0 | 0 | 0.14 | 0.48
4 | Nc1nc2[nH]cnc2c(=S)[nH]1 [Thioguanine] (top concentration tested 10000 nM) | 0 | 1.43 | 9.91 | 9.24
5 | O=c1sn(-c2cccc3ccccc23)c(=O)n1Cc1ccccc1 [Tideglusib] (top concentration tested 3000 nM) | 0 | 0 | 2.47 | 0.7
6 | Cn1cncc1[C@@](N)(c1ccc(Cl)cc1)c1ccc2c(c1)c(-c1cccc(Cl)c1)cc(=O)n2C [Tipifarnib] (top concentration tested 10000 nM) | 1.51 | 6.86 | 12.3 | 14.8
7 | O=C1NC(=O)[C@@H](c2cn3c4c(cccc24)CCC3)[C@@H]1c1c[nH]c2ccccc12 [Tivantinib] (top concentration tested 1000 nM) | 0 | 0.63 | 2.71 | 2.4
8 | COc1cc2nccc(Oc3ccc(NC(=O)Nc4cc(C)on4)c(Cl)c3)c2cc1OC [Tivozanib] (top concentration tested 10000 nM) | 0 | 1.14 | 4.07 | 4.13
9 | C[C@@H]1CCN(C(=O)CC#N)C[C@@H]1N(C)c1ncnc2[nH]ccc12 [Tofacitinib] (top concentration tested 5000 nM) | 0 | 0 | 0.07 | 0
10 | CC[C@@]1(O)C(=O)OCc2c1cc1n(c2=O)Cc2cc3c(CN(C)C)c(O)ccc3nc2-1 [Topotecan] (top concentration tested 10000 nM) | 8.8 | 13 | 28.1 | 27
11 | CN(C)CCOc1ccc(/C(=C(/CCCl)c2ccccc2)c2ccccc2)cc1 [Toremifene] (top concentration tested 10000 nM) | 2.32 | 6.99 | 2.66 | 5.41
12 | CC(C)C[C@@H](C(=O)N[C@H](C(=O)OC1CCCC1)c1ccccc1)[C@H](O)C(=O)NO [Tosedostat] (top concentration tested 10000 nM) | 1.4 | 8.66 | 3.46 | 6.78
13 | Cc1cc(Nc2cc(N3CCN(C)CC3)nc(Sc3ccc(NC(=O)C4CC4)cc3)n2)n[nH]1 [Tozasertib] (top concentration tested 10000 nM) | 0 | 0.22 | 10.3 | 12.1
14 | CC(=O)Nc1cccc(-n2c(=O)n(C3CC3)c(=O)c3c(Nc4ccc(I)cc4F)n(C)c(=O)c(C)c32)c1 [Trametinib] (top concentration tested 250 nM) | 1.69 | 0 | 0 | 0
15 | CC1=C(/C=C/C(C)=C/C=C/C(C)=C/C(=O)O)C(C)(C)CCC1 [Tretinoin] (top concentration tested 10000 nM) | 0 | 0 | 0 | 0
16 | NC(=S)N/N=C/c1ncccc1N [Triapine] (top concentration tested 10000 nM) | 1.5 | 0.84 | 14.7 | 9.19
17 | O=C(CCCCCCC(=O)Nc1ccc([C@H]2O[C@@H](CSc3nc(-c4ccccc4)c(-c4ccccc4)o3)C[C@@H](c3ccc(CO)cc3)O2)cc1)NO [Tubacin] (top concentration tested 10000 nM) | 0.48 | 2.57 | 4.63 | 5.53
18 | CN1CCc2c(c3ccccc3n2Cc2ccc(C(=O)NO)cc2)C1 [Tubastatin A] (top concentration tested 10000 nM) | 5.37 | 7.38 | 8.41 | 8.98
19 | CN[C@@H]1C[C@H]2O[C@@](C)([C@@H]1OC)n1c3ccccc3c3c4c(c5c6ccccc6n2c5c31)C(=O)N[C@H]4O [UCN-01] (top concentration tested 10000 nM) | 3.93 | 9.92 | 28.3 | 29.5
20 | COC(=O)c1ccc2c(c1)[nH]c1ncnc(NCCCN3CCCCC3)c12 [UM729] (top concentration tested 10000 nM) | 0.81 | 4.84 | 8.45 | 6.2
21 | O=C(O)CSc1cc(NS(=O)(=O)c2ccc(Br)cc2)c2ccccc2c1O [UMI-77] (top concentration tested 100000 nM) | 5.23 | 5.12 | 10 | 13.1
22 | COc1cc2c(NC3CCN(C(C)C)CC3)nc(C3CCCCC3)nc2cc1OCCCN1CCCC1 [UNC0638] (top concentration tested 10000 nM) | 6.64 | 7.19 | 5.62 | 7.26

Row | Compound | drug sensitivity score (HEK293sieSTAT3(Y640F) [1]) | drug sensitivity score (HEK293sieSTAT3(wt) [2]) | drug sensitivity score (HEK293sieSTAT3(Y640F) [3]) | drug sensitivity score (HEK293sieSTAT3(wt) [4])
23 | COc1cc2c(NC3CCN(C(C)C)CC3)nc(N3CCC(F)(F)CC3)nc2cc1OCCCN1CCCC1 [UNC0642] (top concentration tested 10000 nM) | 7.41 | 7.38 | 9.29 | 7.97
24 | O=C(c1ccc(C(=O)N2CCC(N3CCCC3)CC2)c(Nc2ccccc2)c1)N1CCC(N2CCCC2)CC1 [UNC1215] (top concentration tested 30000 nM) | 0 | 0 | 0.33 | 0.89
25 | CCCCNc1ncc(C(=O)NCc2ccc(-n3ccnc3)cc2)c(NC2CCC(O)CC2)n1 (stereo unspecified) [UNC2881] (top concentration tested 2500 nM) | 0 | 3.59 | 5.94 | 4.52
26 | NC(=O)c1cccc(-c2cccc(OC(=O)NC3CCCCC3)c2)c1 [URB597] (top concentration tested 1000 nM) | 0 | 0 | 0.03 | 0.37
27 | CC(C)Nc1cc(-c2c[nH]c(C(=O)N[C@H](CO)c3cccc(Cl)c3)c2)c(Cl)cn1 [Ulixertinib] (top concentration tested 10000 nM) | 0 | 0 | 4.62 | 3.95
28 | Cn1ncc(Cl)c1-c1cc(C(=O)N[C@H](CN)Cc2ccc(F)c(F)c2)oc1Cl [Uprosertib] (top concentration tested 10000 nM) | 0 | 0 | 12.7 | 15.3
29 | Oc1ncc(N(CCCl)CCCl)c(O)n1 [Uramustine] (top concentration tested 10000 nM) | 0 | 0 | 0.79 | 0.26
30 | CS(=O)(=O)c1ccc(-c2cnc(N)c(C(=O)Nc3ccccc3)n2)cc1 [VE-821] (top concentration tested 10000 nM) | 0 | 0 | 2.27 | 2.94
31 | O=C(O)CC1CC(c2ccccc2)=NO1 (stereo unspecified) [VGX-1027] (top concentration tested 10000 nM) | 0 | 0 | 3.98 | 1.07
32 | CNC(=O)c1ccccc1Nc1cc(Nc2ccc(N3CCOCC3)cc2OC)ncc1C(F)(F)F [VS-4718] (top concentration tested 10000 nM) | 0 | 0.44 | 8.98 | 7.27
33 | O=c1ncn2nc(Sc3ccc(F)cc3F)ccc2c1-c1c(Cl)cccc1Cl [VX 745] (top concentration tested 10000 nM) | 0 | 0 | 4.64 | 2.43
34 | CCCC(CCC)C(=O)O [Valproic acid] (top concentration tested 1000000 nM) | 0 | 0 | 3.24 | 3.15
35 | CCCCC(=O)OCC(=O)[C@]1(O)Cc2c(O)c3c(c(O)c2[C@@H](O[C@H]2C[C@H](NC(=O)C(F)(F)F)[C@H](O)[C@H](C)O2)C1)C(=O)c1c(OC)cccc1C3=O [Valrubicin] (top concentration tested 5000 nM) | 0 | 0.89 | 21.9 | 22.8
36 | COc1cc2/c(=N/c3ccc(Br)cc3F)nc[nH]c2cc1OCC1CCN(C)CC1 [Vandetanib] (top concentration tested 1000 nM) | 0 | 0 | 2.31 | 4.73
37 | CCc1c(C(=O)C(N)=O)c2c(OCC(=O)O)cccc2n1Cc1ccccc1 [Varespladib] (top concentration tested 10000 nM) | 0 | 0 | 3.29 | 0
38 | C[C@@H]1COC(Nc2ccc3ncnc(Nc4ccc(OCc5nccs5)c(Cl)c4)c3c2)=N1 [Varlitinib] (top concentration tested 10000 nM) | 0 | 0 | 0.4 | 0
39 | Clc1ccc(Nc2nnc(Cc3ccncc3)c3ccccc23)cc1 [Vatalanib] (top concentration tested 10000 nM) | 0 | 0 | 0.9 | 1.89
40 | C[C@]1(c2nc3c(C(N)=O)cccc3[nH]2)CCCN1 [Veliparib] (top concentration tested 10000 nM) | 0 | 0.43 | 0 | 2.28
41 | CCCS(=O)(=O)Nc1ccc(F)c(C(=O)c2c[nH]c3ncc(-c4ccc(Cl)cc4)cc23)c1F [Vemurafenib] (top concentration tested 10000 nM) | 3.47 | 4.84 | 0 | 1.57
42 | CC1(C)CCC(CN2CCN(c3ccc(C(=O)NS(=O)(=O)c4ccc(NCC5CCOCC5)c([N+](=O)[O-])c4)c(Oc4cnc5[nH]ccc5c4)c3)CC2)=C(c2ccc(Cl)cc2)C1 [Venetoclax] (top concentration tested 1000 nM) | 0 | 0 | 0 | 0
43 | O=C(/C=C\n1cnc(-c2cc(C(F)(F)F)cc(C(F)(F)F)c2)n1)NNc1ccccn1 [Verdinexor] (top concentration tested 1000 nM) | 5.2 | 10.5 | 15.5 | 17.4
44 | CC[C@]1(O)C[C@@H]2CN(CCc3c([nH]c4ccccc34)[C@@](C(=O)OC)(c3cc4c(cc3OC)N(C)[C@H]3[C@@](O)(C(=O)OC)[C@H](OC(C)=O)[C@]5(CC)C=CCN6CC[C@]43[C@@H]65)C2)C1 [Vinblastine] (top concentration tested 1000 nM) | 5.1 | 19.4 | 19.8 | 21.8
